In US20260176319A1, “PEPTIDE ANALOGS AND METHODS OF USING THE SAME” (Kallyope, Inc., priority 2024, published 2026):
Read-outs that look alike come from different tables or passages of the source. Starred links: 1 amine or outer side, 2 acyl side, 3 side chain; linkers in the order of their positions; H or OH if unused. Non-standard residues stand in square brackets, D forms with d. Residues, ends and D or L forms follow the SMILES beside them. *: point of attachment. Me3N+(CH2)2O(CH2)2O(CH2)2CO = C[N+](C)(C)CCOCCOCCC(=O)*; Trp(7-Me) = Cc1cccc2c(C[C@H](N)C(=O)O)c[nH]c12; C20 diacid = O=C(O)CCCCCCCCCCCCCCCCCCC(=O)*; d(γGlu) = O=C(O)[C@@H](CCC(=O)[*:2])N[*:1]; C18 diacid = O=C(O)CCCCCCCCCCCCCCCCC(=O)*; γGlu = O=C(O)[C@H](CCC(=O)[*:2])N[*:1]; NMeH = CN[C@@H](Cc1c[nH]cn1)C(=O)O; X1 = O=C(CC1(N[*:1])CCC1)[*:2]; X2 = O=C(CC1(N[*:1])CC1)[*:2]; Nle = CCCC[C@H](N)C(=O)O; β3hA = C[C@H](N)CC(=O)O; Dap = NC[C@H](N)C(=O)O; AEEA = NCCOCCOCC(=O)O; βAla = NCCC(=O)O

What was measured:
[1] = Pharmacokinetics after intravenous peptide administration in mice; set-up: species or system C57BL/6 mice; conditions: in vivo
Method: GPR-10 and peptides were dosed IV at 2 mg/kg as a formulation of 0.4 mg/mL in […]+65% water (pH 6-7).

human GRP receptors = target: T1, human GRP receptors (Homo sapiens, UniProt P30550); assay: IP1 GRPR activity: HTRF IP1-Gq assay in U2OS cells stably expressing human GRP receptors; format: cell-based; conditions: 90 minutes incubation, read-out: hIP1 GRPR EC50
T1 construct: host or cells: U2OS
Method: U2OS cells stably expressing human GRP receptors (DiscoverX, #93-0229C3) were cultured according to manufacturer's instructions. Cells were cultured to […], then collected using AccuTase (Innovative Cell Technologies, #AT104). Cells were washed and plated on a poly-D-lysine-coated 384-well plate (ThermoFisher, #A3890401) at a density of 2,500 cells/well in […] assay buffer (AssayComplete Cell Plating 5 Reagent, DiscoverX #93-0563R5), then incubated overnight at 37° C. and 5% C02. The following morning, a homogenous time-resolved fluorescence (HTRF) assay was performed in a 384-well plate format using the IP1-Gq assay kit (Cisbio, 62IPAPEB). Test compounds were made as a stock in DMSO, then serially diluted to generate 10-point dose response curves in IP1 stimulation buffer. Five microliters of the prepared compounds were then added to the plate containing cells and assay buffer in duplicate, and the cells were incubated at 37° C. and 5% CO2 for 90 minutes. Following compound incubation, […] of IP1 lysis/detection buffer (prepared according to manufacturer's instructions) was added to each well, and the plates were incubated at room temperature for 1 hour. HTRF signals were measured using a plate reader (ClarioSTAR), calculating the ratio between emissions at 665 nm and 620 nm (HTRF ratio). HTRF ratio for positive (Max, […]; SEQ ID NO. 45) and negative (Min, DMSO) controls were used to normalize HTRF data and generate values for % activity. EC50 and Max activity values were determined using a standard 4-parameter fit using GraphPad Prism.

[2] = mouse, C57BL/6 mice, IV 2 mg/kg, formulation of 0.4 mg/mL, read-out: T1/2 (converted)
[3] = mouse, C57BL/6 mice, IV 2 mg/kg, formulation of 0.4 mg/mL, read-out: CL

T1 sequence (P30550 whole entry): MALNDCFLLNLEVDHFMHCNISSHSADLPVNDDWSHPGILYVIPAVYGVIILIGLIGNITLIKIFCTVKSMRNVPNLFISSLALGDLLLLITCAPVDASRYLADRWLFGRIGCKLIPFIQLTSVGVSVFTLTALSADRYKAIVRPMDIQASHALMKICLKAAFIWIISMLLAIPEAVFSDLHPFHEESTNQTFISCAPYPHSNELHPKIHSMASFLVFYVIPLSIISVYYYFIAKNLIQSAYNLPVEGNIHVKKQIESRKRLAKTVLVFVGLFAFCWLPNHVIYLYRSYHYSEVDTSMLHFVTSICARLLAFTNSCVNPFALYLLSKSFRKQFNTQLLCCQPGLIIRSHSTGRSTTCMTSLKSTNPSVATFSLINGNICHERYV

Row | Structure (SMILES) | half-life [1, 2] | clearance [1, 3] | EC50 (human GRP receptors) | also measured
1 | CSCC[C@H](NC(=O)[C@H](CC(C)C)NC(=O)[C@H](Cc1cnc[nH]1)NC(=O)CNC(=O)[C@@H](NC(=O)[C@H](C)NC(=O)[C@H](Cc1c[nH]c2ccccc12)NC(=O)[C@H](Cc1cnc[nH]1)NC(=O)[C@H](CC(N)=O)NC(=O)CN)C(C)C)C(N)=O [GRP10, G-N-H-W-A-V-G-H-L-M-NH2, reference compound] | – | – | – | clearance ([1]; C57BL/6, mouse, iv, 2 mg/kg): 4540 mL/min/kg; half-life ([1]; C57BL/6, mouse, iv, 2 mg/kg): 0.3 h
2 | CCCC[C@H](NC(=O)[C@H](CC(C)C)NC(=O)[C@H](Cc1c[nH]cn1)NC(=O)[C@@H](C)NC(=O)[C@@H](NC(=O)[C@H](C)NC(=O)[C@H](Cc1c[nH]c2ccccc12)NC(=O)[C@H](Cc1c[nH]cn1)NC(=O)[C@H](CC(N)=O)NC(=O)CN)C(C)C)C(N)=O [Peptide 6, Gly-Asn-His-Trp-Ala-Val-D-Ala-His-Leu-Nle-NH2] | < 0.1 h | – | – | –
3 | CCCCCCCCCCCCCCCC(=O)N[C@H](CCC(=O)NCCOCCOCC(=O)NCCOCCOCC(=O)NCC(=O)N[C@@H](CC(N)=O)C(=O)N[C@@H](Cc1c[nH]cn1)C(=O)N[C@@H](Cc1c[nH]c2ccccc12)C(=O)N[C@@H](C)C(=O)N[C@H](C(=O)NCC(=O)N[C@@H](Cc1c[nH]cn1)C(=O)N[C@@H](CC(C)C)C(=O)N[C@@H](CCSC)C(N)=O)C(C)C)C(=O)O [Peptide 8, Palmitoyl-D-γGlu-OEG-OEG-Gly-Asn-His-Trp-Ala-Val-Gly-His-Leu-Met-NH2] | 2 h | 1.2 mL/min/kg | – | –
4 | CCCC[C@H](NC(=O)[C@H](CC(C)C)NC(=O)[C@H](Cc1c[nH]cn1)NC(=O)[C@@H](C)NC(=O)[C@@H](NC(=O)[C@H](C)NC(=O)[C@H](Cc1c[nH]c2ccccc12)NC(=O)[C@H](Cc1c[nH]cn1)NC(=O)[C@H](CC(N)=O)NC(=O)CNC(=O)COCCOCCNC(=O)COCCOCCNC(=O)CC[C@@H](NC(=O)CCCCCCCCCCCCCCCCC(=O)O)C(=O)O)C(C)C)C(N)=O [Peptide 9, Octadecanedioyl-D-γGlu-OEG-OEG-Gly-Asn-His-Trp-Ala-Val-D-Ala-His-Leu-Nle-NH2] ({C18 diacid-d(γGlu)-AEEA-AEEA}-GNHWAV[dA]HL[Nle]-NH2) | 5.7 h | 0.5 mL/min/kg | – | –
5 | CCCC[C@H](NC(=O)[C@H](CC(C)C)NC(=O)[C@H](Cc1c[nH]cn1)NC(=O)[C@@H](C)NC(=O)[C@@H](NC(=O)[C@H](C)NC(=O)[C@H](Cc1c[nH]c2ccccc12)NC(=O)[C@H](Cc1c[nH]cn1)NC(=O)[C@H](CC(N)=O)NC(=O)[C@H](CCCNC(=N)N)NC(=O)COCCOCCNC(=O)COCCOCCNC(=O)CC[C@H](NC(=O)CCCCCCCCCCCCCCCCC(=O)O)C(=O)O)C(C)C)C(=O)O [Peptide 156, Octadecanedioyl-γGlu-OEG-OEG-Arg-Asn-His-Trp-Ala-Val-D-Ala-His-Leu-Nle] ({C18 diacid-γGlu-AEEA-AEEA}-RNHWAV[dA]HL[Nle]-OH) | – | – | 358 nM | –
6 | CCCC[C@H](NC(=O)[C@H](CC(C)C)NC(=O)[C@H](Cc1c[nH]cn1)NC(=O)CCNC(=O)[C@@H](NC(=O)[C@H](C)NC(=O)[C@H](Cc1c[nH]c2c(C)cccc12)NC(=O)[C@H](Cc1c[nH]cn1)NC(=O)[C@H](CCCNC(=N)N)NC(=O)CNC(=O)[C@H](CCC(=O)O)NC(=O)COCCOCCNC(=O)COCCOCCNC(=O)CC[C@H](NC(=O)CC[C@H](NC(=O)CCCCCCCCCCCCCCCCCCC(=O)O)C(=O)O)C(=O)O)C(C)C)C(N)=O [Peptide 252, Eicosanedioyl-γGlu-γGlu-OEG-OEG-Glu-Gly-Arg-His-7MeTrp-Ala-Val-β-Ala-His-Leu-Nle-NH2] ({C20 diacid-γGlu-γGlu-AEEA-AEEA}-EGRH[Trp(7-Me)]AV[βAla]HL[Nle]-NH2) | 6.6 h | 0.12 mL/min/kg | 7.5 nM | –
7 | CCCC[C@H](NC(=O)[C@H](CC(C)C)NC(=O)[C@H](Cc1c[nH]cn1)NC(=O)CCNC(=O)[C@@H](NC(=O)[C@H](C)NC(=O)[C@H](Cc1c[nH]c2c(C)cccc12)NC(=O)[C@H](Cc1c[nH]cn1)NC(=O)[C@H](CCCNC(=N)N)NC(=O)CNC(=O)[C@H](CO)NC(=O)COCCOCCNC(=O)COCCOCCNC(=O)CC[C@H](NC(=O)CC[C@H](NC(=O)CCCCCCCCCCCCCCCCCCC(=O)O)C(=O)O)C(=O)O)C(C)C)C(N)=O [Peptide 256, Eicosanedioyl-γGlu-Glu-OEG-OEG-Ser-Gly-Arg-His-7MeTrp-Ala-Val-β-Ala-His-Leu-Nle-NH2] ({C20 diacid-γGlu-γGlu-AEEA-AEEA}-SGRH[Trp(7-Me)]AV[βAla]HL[Nle]-NH2) | – | – | 3.7 nM | –
8 | CCCC[C@H](NC(=O)[C@H](CC(C)C)NC(=O)[C@H](Cc1c[nH]cn1)NC(=O)CCNC(=O)[C@@H](NC(=O)[C@H](C)NC(=O)[C@H](Cc1c[nH]c2c(C)cccc12)NC(=O)[C@H](Cc1c[nH]cn1)NC(=O)[C@H](CCC(N)=O)NC(=O)[C@H](CO)NC(=O)[C@H](CCC(=O)O)NC(=O)COCCOCCNC(=O)COCCOCCNC(=O)CC[C@H](NC(=O)CC[C@H](NC(=O)CCCCCCCCCCCCCCCCCCC(=O)O)C(=O)O)C(=O)O)C(C)C)C(N)=O [Peptide 257, Eicosanedioyl-γGlu-γGlu-OEG-OEG-Glu-Ser-Gln-His-7MeTrp-Ala-Val-β-Ala-His-Leu-Nle-NH2] ({C20 diacid-γGlu-γGlu-AEEA-AEEA}-ESQH[Trp(7-Me)]AV[βAla]HL[Nle]-NH2) | 9.4 h | 0.09 mL/min/kg | – | –
9 | CCCC[C@H](NC(=O)[C@H](CC(C)C)NC(=O)[C@H](Cc1c[nH]cn1)NC(=O)C[C@H](C)NC(=O)[C@@H](NC(=O)[C@H](C)NC(=O)[C@H](Cc1c[nH]c2c(C)cccc12)NC(=O)[C@H](Cc1c[nH]cn1)NC(=O)[C@H](CC(N)=O)NC(=O)CNC(=O)COCCOCCNC(=O)COCCOCCNC(=O)CC[C@H](NC(=O)CC[C@H](NC(=O)CCCCCCCCCCCCCCCCCCC(=O)O)C(=O)O)C(=O)O)C(C)C)C(N)=O [Peptide 258, Eicosanedioyl-γGlu-γGlu-OEG-OEG-Gly-Asn-His-7MeTrp-Ala-Val-BABA-His-Leu-Nle-NH2] ({C20 diacid-γGlu-γGlu-AEEA-AEEA}-GNH[Trp(7-Me)]AV[β3hA]HL[Nle]-NH2) | – | – | 6 nM | –
10 | CCCC[C@H](NC(=O)[C@H](CC(C)C)NC(=O)[C@H](Cc1c[nH]cn1)NC(=O)CCNC(=O)[C@@H](NC(=O)[C@H](C)NC(=O)[C@H](Cc1c[nH]c2ccccc12)NC(=O)[C@H](Cc1c[nH]cn1)NC(=O)[C@H](CNC(=O)CCOCCOCC[N+](C)(C)C)NC(=O)CNC(=O)COCCOCCNC(=O)COCCOCCNC(=O)CC[C@H](NC(=O)CCCCCCCCCCCCCCCCCCC(=O)O)C(=O)O)C(C)C)C(N)=O [Peptide 262, Eicosanedioyl-γGlu-OEG-OEG-Gly-Dap(2CE-PEG-TMEA)-His-Trp-Ala-Val-β-Ala-His-Leu-Nle-NH2] ({C20 diacid-γGlu-AEEA-AEEA}-G[Dap](Me3N+(CH2)2O(CH2)2O(CH2)2CO)HWAV[βAla]HL[Nle]-NH2) | – | – | 4 nM | –
11 | CCCC[C@H](NC(=O)[C@H](CC(C)C)NC(=O)[C@H](Cc1cnc[nH]1)N(C)C(=O)C[C@H](C)NC(=O)[C@@H](NC(=O)[C@H](C)NC(=O)[C@H](Cc1c[nH]c2c(C)cccc12)NC(=O)[C@H](Cc1c[nH]cn1)NC(=O)[C@H](CCC(N)=O)NC(=O)CNC(=O)COCCOCCNC(=O)COCCOCCNC(=O)CC[C@H](NC(=O)CC[C@H](NC(=O)CCCCCCCCCCCCCCCCCCC(=O)O)C(=O)O)C(=O)O)C(C)C)C(N)=O [Peptide 270, Eicosanedioyl-γGlu-γGlu-OEG-OEG-Gly-Gln-His-7MeTrp-Ala-Val-BABA-NMeHis-Leu-Nle-NH2] ({C20 diacid-γGlu-γGlu-AEEA-AEEA}-GQH[Trp(7-Me)]AV[β3hA][NMeH]L[Nle]-NH2) | – | – | 3.8 nM | –
12 | CCCC[C@H](NC(=O)[C@H](CC(C)C)NC(=O)[C@H](Cc1c[nH]cn1)NC(=O)CC1(NC(=O)[C@@H](NC(=O)[C@H](C)NC(=O)[C@H](Cc2c[nH]c3ccccc23)NC(=O)[C@H](Cc2c[nH]cn2)NC(=O)[C@H](CCC(N)=O)NC(=O)CNC(=O)COCCOCCNC(=O)COCCOCCNC(=O)CC[C@H](NC(=O)CC[C@H](NC(=O)CCCCCCCCCCCCCCCCCCC(=O)O)C(=O)O)C(=O)O)C(C)C)CC1)C(N)=O [Peptide 272, Eicosanedioyl-γGlu-γGlu-OEG-OEG-Gly-Gln-His-Trp-Ala-Val-ACPA-His-Leu-Nle-NH2] ({C20 diacid-γGlu-γGlu-AEEA-AEEA}-GQHWAV[X2]HL[Nle]-NH2) | – | – | 6 nM | –
13 | CCCC[C@H](NC(=O)[C@H](CC(C)C)NC(=O)[C@H](Cc1c[nH]cn1)NC(=O)CC1(NC(=O)[C@@H](NC(=O)[C@H](C)NC(=O)[C@H](Cc2c[nH]c3ccccc23)NC(=O)[C@H](Cc2c[nH]cn2)NC(=O)[C@H](CCC(N)=O)NC(=O)CNC(=O)COCCOCCNC(=O)COCCOCCNC(=O)CC[C@H](NC(=O)CC[C@H](NC(=O)CCCCCCCCCCCCCCCCCCC(=O)O)C(=O)O)C(=O)O)C(C)C)CCC1)C(N)=O [Peptide 273, Eicosanedioyl-γGlu-Glu-OEG-OEG-Gly-Gln-His-Trp-Ala-Val-ACBA-His-Leu-Nle-NH2] ({C20 diacid-γGlu-γGlu-AEEA-AEEA}-GQHWAV[X1]HL[Nle]-NH2) | – | – | 12.3 nM | –
